Results as given in ChEMBL document CHEMBL4706752 (ACS Med Chem Lett, 2021).
The source made the active and inactive calls. The rule behind the calls is not given here.

Legend:
[1] = target: T1, Oxysterols receptor LXR-beta (Homo sapiens, UniProt P55055); assay: Inhibition of LXRbeta (unknown origin)
T1 sequence (P55055 whole entry): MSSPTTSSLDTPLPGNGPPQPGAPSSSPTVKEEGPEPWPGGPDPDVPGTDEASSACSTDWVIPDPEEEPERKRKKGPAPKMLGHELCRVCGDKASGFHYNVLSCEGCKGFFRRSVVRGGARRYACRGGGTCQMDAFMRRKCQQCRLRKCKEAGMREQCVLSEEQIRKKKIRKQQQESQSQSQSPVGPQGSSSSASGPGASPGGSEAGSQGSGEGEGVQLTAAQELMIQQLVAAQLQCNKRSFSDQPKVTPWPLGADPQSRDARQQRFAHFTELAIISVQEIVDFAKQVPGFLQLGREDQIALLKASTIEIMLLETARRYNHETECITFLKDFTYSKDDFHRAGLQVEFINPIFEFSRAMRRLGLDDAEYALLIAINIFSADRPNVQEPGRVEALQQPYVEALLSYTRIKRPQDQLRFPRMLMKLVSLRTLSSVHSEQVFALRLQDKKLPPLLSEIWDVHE

[2] = tested on: Mus musculus; assay: Antiinflammatory activity in DBA/1J mouse model of collagen-induced arthritis assessed as reduction in plasma IL-6 level at 5 mg/kg, po dosed twice daily for 21 days (reference value: 80 +/- 6 pg/ml); assay type: functional; conditions: time 21 day
[3] = Half life in Balb/c mouse at 2 mg/kg, iv; assay type: ADME, organism-based; conditions: in vivo
[4] = Clearance in Sprague-Dawley rat at 2 mg/kg, iv; assay type: ADME, organism-based; conditions: in vivo
[5] = tested on: Mus musculus; assay: Antiinflammatory activity in DBA/1J mouse model of collagen-induced arthritis assessed as reduction in Anti-CII Ab level at 5 to 20 mg/kg, po dosed twice daily for 21 days; assay type: functional, organism-based; conditions: dose 5-20 mg/kg, time 21.0 day
[6] = tested on: Mus musculus; assay: Antiinflammatory activity in DBA/1J mouse model of collagen-induced arthritis assessed as reduction in clinical score at 5 mg/kg, po dosed twice daily for 21 days measured on day 51; assay type: functional; conditions: 504 h, time 21 day
[7] = Oral bioavailability in Balb/c mouse at 4 mg/kg; assay type: ADME, organism-based; conditions: in vivo
[8] = Oral bioavailability in cynomolgus monkey at 2 mg/kg; assay type: ADME, organism-based, Macaca fascicularis; conditions: in vivo
[9] = Metabolic stability in mouse liver microsomes assessed as compound remaining after 10 mins; assay type: ADME, Microsome; conditions: read-out: Stabilty
[10] = Clearance in cynomolgus monkey at 1 mg/kg, iv; assay type: ADME, organism-based, Macaca fascicularis; conditions: in vivo
[11] = tested on: Mus musculus; assay: Antiinflammatory activity in DBA/1J mouse model of collagen-induced arthritis assessed as reduction in histological score at 5 mg/kg, po dosed twice daily for 21 days; assay type: functional; conditions: 504 h, time 21 day
[12] = Half life in cynomolgus monkey at 1 mg/kg, iv; assay type: ADME, organism-based, Macaca fascicularis; conditions: in vivo
[13] = AUC in dog at 1 mg/kg, iv; assay type: ADME, organism-based, Canis lupus familiaris; parameters: dose 1 mg/kg; conditions: in vivo
[14] = tested on: Mus musculus; assay: Suppression of ear thickness in C57BL/6 mouse model of IL-23 induced acanthosis model of psoriasis at 5 to 20 mg/kg, po BID for 10 days measured every other day; assay type: functional, organism-based; conditions: dose 5-20 mg/kg, time 10.0 day
[15] = Half life in Sprague-Dawley rat at 2 mg/kg, iv; assay type: ADME, organism-based; conditions: in vivo
[16] = Clearance in dog at 1 mg/kg, iv; assay type: ADME, organism-based, Canis lupus familiaris; conditions: in vivo
[17] = Unbound volume of distribution at steady state in dog at 1 mg/kg, iv; assay type: ADME, organism-based, Canis lupus familiaris; conditions: in vivo
[18] = Cmax in dog at 2 mg/kg, po; assay type: ADME, organism-based, Canis lupus familiaris; parameters: route oral, dose 2 mg/kg; conditions: in vivo
[19] = Decrease in IL-17a gene expression in C57BL/6 mouse model of IL-23 induced acanthosis model of psoriasis at 5 mg/kg, po BID for 10 days by RT-PCR analysis; assay type: functional; conditions: C57BL/6, po, 240 h, time 10 day
[20] = tested on: Mus musculus; assay: Antiinflammatory activity in DBA/1J mouse model of collagen-induced arthritis assessed as reduction in histological score at 20 mg/kg, po dosed twice daily for 21 days; assay type: functional; conditions: 504 h, time 21 day
[21] = Oral bioavailability in dog at 2 mg/kg; assay type: ADME, organism-based, Canis lupus familiaris; conditions: in vivo
[22] = AUC in Balb/c mouse at 4 mg/kg, po; assay type: ADME, organism-based; parameters: dose 4 mg/kg; conditions: in vivo
[23] = AUC in cynomolgus monkey at 2 mg/kg, po; assay type: ADME, organism-based, Macaca fascicularis; parameters: dose 2 mg/kg; conditions: in vivo
[24] = Tmax in cynomolgus monkey at 2 mg/kg, po; assay type: ADME, organism-based, Macaca fascicularis; conditions: in vivo
[25] = AUC in dog at 2 mg/kg, po; assay type: ADME, organism-based, Canis lupus familiaris; parameters: dose 2 mg/kg; conditions: in vivo
[26] = AUC in cynomolgus monkey at 1 mg/kg, iv; assay type: ADME, organism-based, Macaca fascicularis; parameters: dose 1 mg/kg; conditions: in vivo
[27] = tested on: Mus musculus; assay: Antiinflammatory activity in DBA/1J mouse model of collagen-induced arthritis assessed as reduction in clinical score at 20 mg/kg, po dosed twice daily for 21 days measured on day 51; assay type: functional; conditions: 504 h, time 21 day
[28] = AUC in Balb/c mouse at 2 mg/kg, iv; assay type: ADME, organism-based; parameters: dose 2 mg/kg; conditions: in vivo
[29] = target: T2, Nuclear receptor ROR-alpha (Homo sapiens, UniProt P35398); assay: Inhibition of RORalpha (unknown origin)
T2 sequence (P35398 whole entry): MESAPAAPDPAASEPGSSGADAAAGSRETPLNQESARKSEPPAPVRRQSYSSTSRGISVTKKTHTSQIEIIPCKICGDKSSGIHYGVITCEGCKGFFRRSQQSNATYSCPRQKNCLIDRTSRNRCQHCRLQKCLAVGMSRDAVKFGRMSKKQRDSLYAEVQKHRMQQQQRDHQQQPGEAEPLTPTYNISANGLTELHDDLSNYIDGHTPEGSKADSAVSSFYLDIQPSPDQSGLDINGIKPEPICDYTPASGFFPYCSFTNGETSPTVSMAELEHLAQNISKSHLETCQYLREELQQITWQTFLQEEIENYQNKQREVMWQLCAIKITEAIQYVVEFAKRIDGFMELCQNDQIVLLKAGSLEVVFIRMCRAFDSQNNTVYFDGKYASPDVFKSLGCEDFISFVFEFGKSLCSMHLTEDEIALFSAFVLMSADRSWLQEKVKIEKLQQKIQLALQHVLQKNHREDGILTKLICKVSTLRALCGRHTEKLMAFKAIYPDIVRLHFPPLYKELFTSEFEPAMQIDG

[30] = Oral bioavailability in Sprague-Dawley rat at 4 mg/kg; assay type: ADME, organism-based; conditions: in vivo
[31] = target: T3, Nuclear receptor ROR-beta (Homo sapiens, UniProt Q92753); assay: Inhibition of RORbeta (unknown origin)
T3 sequence (Q92753 whole entry): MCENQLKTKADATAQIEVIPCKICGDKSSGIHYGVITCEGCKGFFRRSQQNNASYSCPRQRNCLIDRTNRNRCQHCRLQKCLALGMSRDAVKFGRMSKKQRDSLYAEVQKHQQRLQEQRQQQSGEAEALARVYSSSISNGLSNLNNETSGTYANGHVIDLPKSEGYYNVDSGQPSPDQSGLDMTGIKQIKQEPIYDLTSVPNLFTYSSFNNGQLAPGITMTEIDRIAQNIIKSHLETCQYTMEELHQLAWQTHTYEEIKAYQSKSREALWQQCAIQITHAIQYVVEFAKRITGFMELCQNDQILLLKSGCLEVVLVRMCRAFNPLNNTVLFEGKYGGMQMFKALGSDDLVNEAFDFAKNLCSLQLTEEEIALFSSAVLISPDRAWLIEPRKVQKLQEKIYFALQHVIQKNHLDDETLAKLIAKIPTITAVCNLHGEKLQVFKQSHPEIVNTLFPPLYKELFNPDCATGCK

C[C@@](O)(CS(C)(=O)=O)C(=O)N[C@@H]1CC[C@@]2(S(=O)(=O)c3ccc(F)cc3)c3ccc(C(F)(C(F)(F)F)C(F)(F)F)nc3CC[C@@H]12
EC50 [1]: > 10 µM
Activity [2]: 26 pg/mL
half-life [3]: 11 h
clearance [4]: 1.9 mL/min/kg
Activity [5]: Active
inhibition in vivo at 5 mg/kg [6]: 48%
bioavailability [7]: 101%
bioavailability [8]: 73%
remaining at 10 min [9]: 98%
clearance [10]: 2.8 mL/min/kg
inhibition in vivo at 5 mg/kg [11]: 59%
half-life [12]: 12 h
AUC [13]: 114 µM·h
Activity [14]: Dose-dependent effect
half-life [15]: 13 h
clearance [16]: 0.22 mL/min/kg
fVdss [17]: 1.3 L/kg
Cmax [18]: 1700 nM
inhibition in vivo at 5 mg/kg [19]: 57.5%
inhibition in vivo at 20 mg/kg [20]: 55%
bioavailability [21]: 72%
AUC [22]: 45.9 µM·h
AUC [23]: 13.2 µM·h
Tmax [24]: 7 h
AUC [25]: 163 µM·h
AUC [26]: 9 µM·h
inhibition in vivo at 20 mg/kg [27]: 78%
AUC [28]: 22.7 µM·h
EC50 [29]: > 10 µM
bioavailability [30]: 85%
EC50 [31]: > 10 µM
